In ChEMBL document CHEMBL1151984, “Dietary derived sesquiterpenes from Phyllodesmium lizardensis” (J Nat Prod, 2009):
Active and inactive are the calls of the source.

Columns and labels:
Format in all cases: functional, organism-based
Escherichia coli = assay: Antibacterial activity against Escherichia coli at 50 ug/disk
Aspergillus ruber = assay: Antifungal activity against Eurotium rubrum at 50 ug/disk
Priestia megaterium = assay: Antibacterial activity against Bacillus megaterium at 50 ug/disk
Mycotypha microspora = assay: Antifungal activity against Mycotypha microspora at 50 ug/disk
Microbotryum violaceum = assay: […] activity against Microbotryum violaceum at 50 ug/disk

Measured: Activity

CC1=C[C@@H]2[C@@H](C(C)C)CC=C(C)[C@@H]2C[C@H]1O
inactive: all assays above

CC(=O)O[C@@H]1C[C@H]2C(C)=CC[C@H](C(C)C)[C@H]2C=C1C
inactive: all assays above
